Source: patent US20070243147A1, “Skin and/or Hair Composition Containing Compounds for Increasing The Tanning of Skin” (BEIERSDORF AG, priority 2004, published 2007)

Test system: primary normal human melanocytes
Test: melanogenesis assay (14C-tyrosine incorporation) after 3 days of incubation
Type: cell-based
Settings: for melanogenesis rate (measured as 14C-tyrosine incorporation) based on the untreated control (=100%): 3 days incubation, primary normal human melanocytes, mean (X transverse), n=4
Method: A melanogenesis assay was carried out after 3 days of incubation of primary normal human melanocytes with test substance compared to control. The figures listed in the table give the melanogenesis rates (measured as ^14C-tyrosine incorporation) based on the untreated control (=100%). It results from this that the melanogenesis, i.e., the process of melanine synthesis, rises to 156% or 150% when the melanocytes are cultivated in the presence of the compound (I) (2E,3S,4R)-2,3,4-trimethyl-3-[(3E,7E,11E)-3,8,12,16-tetramethylheptadeca-3,7,11,15-tetraen-1-yl]cyclohexanone (n=4).
Furthermore, a melanogenesis assay was carried out after 3 days of incubation of primary normal human melanocytes with test substance compared to control. The figures listed in the table give the melanogenesis rates (measured as ^14C-tyrosine incorporation) based on the untreated control (=100%). It results from this that the melanogenesis, i.e., the process of melanine synthesis, rises to 135% or 113% when the melanocytes are cultivated in the presence of the preferred compound (III) (4E,8E,12E,16E)-3,7,11,15-tetrahydroxy-18-(hydroxymethyl)-2,4,6,10,14,16,20-heptamethyldocosa-4,8,12,16-teraenoic acid (n=4).

Row | SMILES | melanogenesis rate (measured as 14C-tyrosine incorporation) based on the untreated control (=100%) (0.1 μg/ml test substance) | melanogenesis rate (measured as 14C-tyrosine incorporation) based on the untreated control (=100%) (1 μg/ml test substance) | increase of the synthesis of melanin (result in words) (tests to increase the synthesis of melanin)
1 | CC(C)=CCC/C(C)=C/CC/C(C)=C/CC/C=C(\C)CC[C@@]1(C)[C@H](C)CCC(=O)[C@@H]1C [compound (I), (2R,3S,4R)-2,3,4-trimethyl-3-[(3E,7E,11E)-3,8,12,16-tetramethylheptadeca-3,7,11,15-tetraen-1-yl]cylcohexanone] | 150% | 156% | 
2 | CCC(C)CC(/C=C(\C)C(O)C(C)/C=C/C(O)C(C)/C=C/C(O)C(C)/C=C(\C)C(O)C(C)C(=O)O)CO (centres unmarked) [compound (III), (4E,8E,12E, 16E)-3,7,11,15-tetrahydroxy-18-(hydroxymethyl)-2,4,6,10,14,16,20-heptamethyldocosa-4,8,12,16-tetraenoic acid] | 153% | 172% | particularly advantageous
